One block for each molecule: values may come before it. Where a SMILES comes first, the peptide text is derived from it.
How the values were obtained:
[1] = test system: hippocampal neurons intoxicated with Aβ1-42 oligomers; assay: Protection against Abeta neurotoxicity in primary hippocampal neurons in microfluidic chambers; type: cell-based, mice; conditions: Aβ intoxicated cells not pretreated, 6 h of intoxication, vs non-intoxicated
Description: Hippocampus are micro-dissected from E16 embryos of C57B16/J wt mice (Rene Janvier, France) in cold Gey's Balanced Salt Solution (GBSS, Sigma) supplemented with 0.1% glucose (Life technologies).
Dissected structures are digested with papain (20 U/ML in DMEM, Sigma; St. Louis, Mo., USA) and mechanically dissociated in the presence of DNAse. Hippocampal cells are then rinsed and re-suspended in DMEM (Life Technologies, Inc., Gaithersburg, Md., USA) to a final density of 18 million cells/ml in Neurobasal (Life technologies) and Glutamax (0.1% LifeTechnologies) supplemented with B27 (1/50) and penicilline/sptreptomycine 1% (Gibco).
This cell suspension is then used to fill the reservoirs of microfluidic chambers, as described (Peyrin et al, 2011 Lab Chips 11(21):3663; Deleglise et al, 2014 Acta Neuropathologica Comm. 2: 145). Microfluidic chips are placed in plastic Petri dishes containing H20-EDTA to prevent evaporation and incubated at 37° C. in a humid 5% CO2 atmosphere. The culture medium is renewed every seven days.
Oligomeric form of Aβ1-42 (Tocris Bioscience, MN, USA), is produced according to Stine W B et al (2003) in J Biol Chem 278, pp 11612-11622 and can be controlled by electron microscopy as in Deleglise B et al. in Acta Neuropathol Commun. 2014; 2: 145).
Briefly, Aβ1-42 lyophilized peptides are solubilized at 1 mM in 1, 1, 1, 3, 3, 3,-hexafluoro-2-propanol (HFIP, Sigma Aldrich). After 30 min of incubation at RT, HFIP is evaporated for 12 h under chemical hood and peptides are dried for 1 h (with a Speed Vac at 4° C.). Then, 5 mM Aβ peptide stock solutions are obtained by resolubilization at in dimethylsulfoxide (DMSO, Sigma Aldrich). To obtain oligomers, Aβ peptide stock solution is diluted in cold phenol free DMEM-F12 medium (Life Technologies) to a final concentration of 100 μM. The solution is then incubated 24 h at 4° C. Soluble Aβ oligomer fraction is collected from the supernatant after a centrifugation step at 20 000 g (10 min; 4° C.), and stored at −80° C. until use.
After 18 days of culture in micro fluidic chambers, hippocampal cells are pre-incubated for 1 h with compounds of the invention prior diluted in phenol free DMEM-F12 medium or in phenol free DMEM-F12 medium alone as a control solution. Cells are then intoxicated for 3 h to 6 h or 24 h with 10 or 100 nm of Aβ1-42 oligomers (or with phenol free DMEM-F12 medium alone as a control solution). After the intoxication step, cells are fixed in 4% paraformaldehyde (PFA, Sigma; St. Louis, Mo., USA) for 20 min RT, and labelled as explained below to evaluate synapses status, cell death or axonal degeneration.
Briefly, after the fixation step, cultures cells are washed twice with PBS+Azide 0.1% for 5 min and permeabilized for 10 min with 0.2% Triton X-100 and 0.1% BSA (Bovine Serum Albumin, Sigma) in PBS+Azide 0.1%. Saturation step is then realized by incubating cells during 30 min in PBS+Azide 0.1%+BSA1%. Primary antibodies are then added and the samples incubated at 4° C. overnight in PBS. Afterwards, samples are rinsed twice for 5 min with PBS+Azide 0.1% and further incubated with the corresponding secondary antibody together with phalloidin conjugated to Alexa Fluor 555 for 2 h RT. The chips were then rinsed twice with PBS+Azide 0.1%.
The following antibodies are used: rabbit polyclonal anti-MAP-2 (AB5622; 1/400, MILLIPORE), mouse monoclonal Anti-Bassoon SAP7F407; 1:400, Enzo LifeSciences). Species-specific secondary antibodies coupled to Alexa 350, 488 or 500 are used (1/500, Life Technologies, Inc., Gaithersburg, Md., USA). Phalloidin conjugated to Alexa Fluor 555 (1/500, EnzoLifeTechnologies) is used to stain F-actin.
Images are acquired with an Axio-observer Zl (Zeiss, Germany) fitted with a cooled CCD camera (CoolsnapHQ2, Ropert Scientific). The microscope is controlled with Metamorph and Micro-manager software. Images were analyzed using ImageJ software.

[2] = target: T1, Casp-2 (Homo sapiens, UniProt P42575); assay: Caspase-2 inhibition assay for reversible inhibitors (IC50, Ki, dilution method); type: biochemical; conditions: for IC50: 30 minutes at 37° C. preincubation; for Ki: secondary plot of Lineweaver-Burk
T1 construct: the Caspase-2 and Caspase-3 are human recombinant active enzymes; purchased Enzo Life ALX-201-057-U100
T1 sequence (P42575 170-325 limits assumed): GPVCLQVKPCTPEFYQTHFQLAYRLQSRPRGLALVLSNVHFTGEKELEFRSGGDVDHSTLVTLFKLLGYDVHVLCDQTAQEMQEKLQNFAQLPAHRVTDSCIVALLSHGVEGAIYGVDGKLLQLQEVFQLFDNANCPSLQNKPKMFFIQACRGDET
T1 sequence (P42575 348-452 limits assumed): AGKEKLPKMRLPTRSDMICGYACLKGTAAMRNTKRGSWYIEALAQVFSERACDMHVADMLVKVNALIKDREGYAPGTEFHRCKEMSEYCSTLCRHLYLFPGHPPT
Procedure: (§1) A preliminary step in the characterization of an inhibitor is the determination of its IC50. The IC50 is the necessary concentration of an inhibitor to decrease the enzyme activity by 50% of its maximum and uninhibited value.
(§2) The compound, at different concentrations, is incubated with the enzyme and buffer for 30 minutes at 37° C. to allow formation of the Enzyme-Inhibitor complex. The reaction is initiated by addition of buffer and substrate, and then activity is measured over 15 minutes for the determination of initial velocities.
(§3) The enzyme and the inhibitor (or DMSO as control) are incubated for 30 minutes at 37° C. The complex thus formed is diluted to 100th in the buffer/substrate mixture and then the activity measurement is started over 20 minutes. The initial rate obtained for the DMSO represents the 100% activity and will serve as a reference for the quantification of the residual activity of the enzyme in the presence of the inhibitor.
(§4) The reaction is started over 20 minutes upon addition of the buffer-substrate mixture.
(§5) Initial velocity values in RFU·min^−1 are reduced to Specific Activity (SA)values (pmol/min/μg enzyme) from an AMC standard range (1 RFU→0.02 pmol).
(§6) The evolution of the ratio 1/SA as a function of 1/[S] makes it possible to obtain the so-called double-inverse graph of Lineweaver-Burk from equation 4 (eq.4) where Vmaxapp and KMapp are the parameters which vary according to the type inhibition and as a function of inhibitor concentration. The intersection of the lines obtained for increasing inhibitor concentrations makes it possible to distinguish different types of inhibitors.
A secondary graph, obtained from the values of the slopes of the Lineweaver-Burk plot as a function of the concentration of inhibitor, makes it possible to obtain the value of the Ki. Its value is given by the abscissa point at the origin.
The initial velocity V0 is expressed from equation 8 (eq.8), where Vmax is the maximum reaction rate (reached when the enzyme is saturated with substrate), [S] the substrate concentration, KM is the Michaelis-Menten constant (substrate concentration corresponding to Vmax/2), Ki is the dissociation constant which accounts for the affinity of the inhibitor for the enzyme.

[3] = target: T2, Caspase-3 (Homo sapiens, UniProt P42574); assay: Caspase-3 inhibition assay for reversible inhibitors (IC50, Ki); type: biochemical
T2 construct: the Caspase-2 and Caspase-3 are human recombinant active enzymes; purchased R&D Systems 707-C3-010/CF
T2 sequence (P42574 29-175 limits assumed): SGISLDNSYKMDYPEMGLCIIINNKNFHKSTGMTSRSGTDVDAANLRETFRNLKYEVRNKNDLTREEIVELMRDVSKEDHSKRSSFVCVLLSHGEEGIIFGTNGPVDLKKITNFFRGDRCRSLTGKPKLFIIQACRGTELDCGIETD
T2 sequence (P42574 176-277 limits assumed): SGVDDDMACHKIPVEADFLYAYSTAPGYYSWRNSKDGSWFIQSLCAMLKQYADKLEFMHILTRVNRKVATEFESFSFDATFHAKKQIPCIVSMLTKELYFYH
Procedure: as §1, §2, §3, §4, §5, §6
A secondary graph, obtained from the values of the slopes of the Lineweaver-Burk plot as a function of the concentration of inhibitor, makes it possible to obtain the value of the Ki. Its value is given by the abscissa point at the origin. […]

[4] = target: T3, Caspase-2 (Homo sapiens, UniProt P42575); assay: Caspase-2 inhibition assay for irreversible inhibitors (kinact/KI, continuous method); type: biochemical
T3 construct: the Caspase-2 and Caspase-3 are human recombinant active enzymes; purchased Enzo Life ALX-201-057-U100
T3 sequence (P42575 170-325 limits assumed): T1 sequence (P42575 170-325 limits assumed)
T3 sequence (P42575 348-452 limits assumed): T1 sequence (P42575 348-452 limits assumed)
Procedure: The efficiency of the comparative compound Δ2Me-TRP601, that is an already known group II Caspase inhibitor (inhibitor of Caspase-2, Caspase-3 and Caspase-7), has been assessed by a similar protocol described in Chauvier et al., 2011 Cell Death Dis 2011, 2:e203.
In this example, the Caspase-2 and Caspase-3 are human recombinant active enzymes that are respectively provided by Enzo Life® (ALX-201-057-U100) and R&D Systems® (707-C3-010/CF).
Caspase-2 is used at a final concentration of 0.1 nM in a “Caspase-2 buffer” containing 20 mM HEPES (pH 7.4), 5 mM DTT, 2 mM EDTA, 0.1% CHAPS and 800 mM succinate. Caspase-3 is used at a final concentration of 0.5 nM in a “Caspase-3 buffer” containing 20 mM HEPES (pH 7.4), 0.1% CHAPS, 5 mM DTT, and 2 mM EDTA.
The peptide substrates used for the enzymatic activity measurements are Ac-DEVD-AMC and Ac-VDVAD-AMC commercialized by EnzoLife® (respectively referenced ALX-260-031-M005 and ALX-260-060-M005). They are fluorogenic due to the presence of their AMC (7-amino-4-methylcoumarin) end group. The releasing of AMC enables to follow the enzymatic activity in fluorescence unit RFU over time in a 96-wells microplate.
The fluorescence values are measured at 37° C. with a spectrofluorometer with a microplate reader BMG FLUOstar OPTIMA. This apparatus is driven by the software Biolise® and is equipped with thermoelectric cooling device by Peltier effect. The mathematical analyses of the experimental data are done with the software Kaleidagraph®.
The inhibitory properties of the tested compounds are evaluated by the determination of the kinact/KI ratio regarding either Caspase-2 or Caspase-3 wherein: • kinact is the maximal inactivation rate constant, and • KI is the dissociation constant according to:
Said ratio is measured according to the continuous method (Allison R D. Curr Protoc Protein Sci. 2001 May; Chapter 3:Unit 3.5.; Chauvier et al., 2011 Cell Death Dis 2:e203; Tan et al., J Med Chem 2015, […]).
Briefly, Caspases activities were determined by monitoring the hydrolysis of fluorogenic substrates (λexc=355 nm, λem=460 nm) as a function of time, in the presence of untreated Caspases (control) or Caspases that had been incubated with a test compound, for 30 min minimum at 37° C. using a BMG Fluostar microplate reader (black 96-well microplates) and the initial velocity (V0) was determined from the linear portion of the progress curve.
Substrates and compounds were previously dissolved in DMSO at 10 mM, with the final solvent concentration kept at lower 4% (v/v). V0, relative velocities, KM and IC50 were determined from experimental data using Mars data Analysis 2.0 and Kaleidagraph softwares.
Inhibitor binding affinity (dissociation constant, KI) and first-order rate constant (k3) parameters were determined for Caspase-2 and Caspase-3 using the progress curve method. The ratio k3/KI was obtained by fitting the experimental data to the equations (F.U., fluorescence unit): […]
A continuous method of determination of the kinact/KI ratio was used for evaluating the inhibitory activity of the tested compounds against Caspase-2 and Caspase-3.
The reaction mixture is prepared by letting the enzyme and the buffer incubate at 37° C.
The tested inhibitory compounds are prepared at different concentrations (¼ IC50; ½ IC50; IC50; 2 IC50; 4 IC50) and put in the microplate.
Then the reaction mixture comprising the enzyme, the buffer and the substrate is rapidly added in the wells.
The activities of the enzyme are measured between 45 and 60 minutes.
The RFU (Relative Fluorescence Units)=f(times) curves are traced for each concentration of tested molecule according to the following equation: ((((−V0)*(exp(−kobs*m0)))+V0)/kobs*)+RFU0
in which: • V0 corresponds to the initial rate (RFU·s^−1) in the concentration of 0 of the tested inhibitory compound; • kobs is the inactivation rate constant; • RFU0 is the fluorescence value at t=0 min; and • m0 is the variable i.e. the inhibitor concentration.

Molecule: Aβ alone: Oligomeric form of Aβ1-42 (Tocris Bioscience) used to intoxicate neurons [reference compound]
- decrease in synapse number [1]: ~50%

- IC50 [2]: 3910 ± 189 nM
- Ki [2]: 3220 nM
Molecule: CC(=O)N[C@@H](CC(=O)O)C(=O)N[C@@H](CCC(=O)O)C(=O)N[C@H](C(=O)N[C@H](C=O)CC(=O)O)C(C)C [Ac-DEVD-CHO]

Molecule: CC(=O)N[C@H](C(=O)N[C@@H](CC(=O)O)C(=O)N[C@H](C(=O)N[C@@H](C)C(=O)N[C@H](C=O)CC(=O)O)C(C)C)C(C)C [Ac-VDVAD-CHO] (Ac-VDVAD-aldehyde)
- Selectivity Indexes (KiCasp3/KiCasp2) [2]: 1.3
- IC50 [2]: 6.9 nM
- Ki [2]: 6.31 nM
- IC50 ([3]; 30 minutes at 37° C. preincubation): 7.23 nM
- Ki ([3]; secondary plot of Lineweaver-Burk): 7.68 nM

Molecule: CC(C)[C@H](NC(=O)c1ccc2ccccc2n1)C(=O)N[C@@H](CC(=O)O)C(=O)N[C@H](C(=O)N1CC[C@H](CC(C)(C)C)[C@H]1C(=O)N[C@@H](CC(=O)O)C(=O)COc1c(F)cccc1F)C(C)C (single isomer, unassigned) [Compound 2 enantiomer b]
- k3/KI Casp2 ([4]; human recombinant Caspase-2 0.1 nM, 37° C.): 1 720 M^−1 · s^−1
- Selectivity ratio (C2/C3) (symbol) ([4]; ratio of k3/KI Casp2 to Casp3): +++ (+++: as no inhibitory activity is detectable toward casp3, selectivity is very important (>>1000).)

— patent publication US11407741B2, “Compounds and their use as selective inhibitors of caspase-2” (priority 2017, dated 2022)
